Source: patent US9695155B2, “Herbicidal substituted pyrimidinyloxy benzene compounds” (E. I. DU PONT DE NEMOURS AND COMPANY, priority 2013, dated 2017)

Tests used:
[1] = system: wheat; assay: Test A postemergence; format: in vivo, Triticum aestivum; details: 0 to 100 scale where 0 is no effect and 100 is complete control
Outline: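 Visual injury scored 0–100 (100 = complete control) against untreated controls about 10 days after treatment in a greenhouse. Test chemicals, formulated with surfactant in non-phytotoxic solvent, were sprayed on soil preemergence or on 2-10 cm, one- to two-leaf plants postemergence.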

[2] = system: sedge, umbrella; assay: Test B flooded paddy test; format: in vivo, Cyperus difformis; details: Flood, 250 g ai/ha; 0 to 100 scale where 0 is no effect and 100 is complete control
Outline: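 2-leaf stage plants; pots flooded to 3 cm, compound added to paddy water, depth maintained. Greenhouse 13–15 d. Visual rating vs untreated controls, 0 (no effect) to 100 (complete control); dash = no result.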

[3] = system: blackgrass; assay: Test C preemergence; format: in vivo, Alopecurus myosuroides; details: for Blackgrass plant response rating: preemergence; for Plant response rating, Blackgrass: Preemergence, 31 g ai/ha, scale 0 to 100, 0 no effect, 100 complete control
Outline: (§1)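 Visual injury score versus untreated controls, 0 = no effect, 100 = complete control, taken 13 to 15 days after treatment in the greenhouse. Pre-emergence pots held loam/sand; post-emergence plants grew in sphagnum peat/vermiculite mix and were sprayed at the 1- to 4-leaf stage.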

[4] = system: corn; assay: Test C preemergence; format: in vivo, Zea mays; details: for Corn plant response rating: preemergence; for Plant response rating, Corn: Preemergence, 31 g ai/ha, scale 0 to 100, 0 no effect, 100 complete control
Outline: as §1

[5] = system: pigweed; assay: Test C preemergence; format: in vivo, Amaranthus retroflexus; details: for Pigweed plant response rating: preemergence; for Plant response rating, Pigweed: Preemergence, 31 g ai/ha, scale 0 to 100, 0 no effect, 100 complete control
Outline: as §1

[6] = system: velvetleaf; assay: Test C preemergence; format: in vivo, Abutilon theophrasti; details: for Velvetleaf plant response rating: preemergence; for Plant response rating, Velvetleaf: Preemergence, 31 g ai/ha, scale 0 to 100, 0 no effect, 100 complete control
Outline: as §1

[7] = system: Italian ryegrass; assay: Test C postemergence; format: in vivo, Lolium multiflorum; details: for Plant response rating, Ryegrass, Italian: scale 0 to 100 (0 no effect, 100 complete control)
Outline: as §1

[8] = system: wheat, winter; assay: Test C postemergence; format: in vivo, Triticum aestivum; details: for Plant response rating, Wheat: scale 0 to 100 (0 no effect, 100 complete control)
Outline: as §1

[9] = system: galium; assay: Test C postemergence; format: in vivo, Galium aparine
Outline: as §1

[10] = system: lambsquarters; assay: Test C postemergence; format: in vivo, Chenopodium album; details: for Plant response rating, Lambsquarters: scale 0 to 100 (0 no effect, 100 complete control)
Outline: as §1

[11] = system: barnyardgrass; assay: Test C postemergence; format: in vivo, Echinochloa crus-galli
Outline: as §1

[12] = system: oilseed rape; assay: Test C postemergence; format: in vivo, Brassica napus; details: for Plant response rating, Oilseed Rape: scale 0 to 100 (0 no effect, 100 complete control)
Outline: as §1

[13] = system: velvetleaf; assay: Test C postemergence; format: in vivo, Abutilon theophrasti; details: for Plant response rating, Velvetleaf: scale 0 to 100 (0 no effect, 100 complete control)
Outline: as §1

[14] = 16 g ai/ha, scale 0 to 100 (0 no effect, 100 complete control)
[15] = 62 g ai/ha, scale 0 (no effect) to 100 (complete control)
[16] = 125 g ai/ha, scale 0 (no effect) to 100 (complete control)
[17] = Postemergence, 31 g ai/ha, 13 to 15 days
[18] = 16 g ai/ha, postemergence, visual rating, scale 0 to 100 (0 no effect, 100 complete control), 13 to 15 days
[19] = Postemergence, 31 g ai/ha, scale 0 to 100 (0 no effect, 100 complete control), 13 to 15 days
[20] = Postemergence, 62 g ai/ha, scale 0 to 100 (0 no effect, 100 complete control)
[21] = 16 g ai/ha, postemergence, 0 is no effect, 100 is complete control
[22] = 125 g ai/ha, postemergence, visual rating
[23] = 125 g ai/ha, postemergence, visual rating, scale 0 to 100 (0 no effect, 100 complete control)

## N#Cc1cccc(Oc2ncc(Br)cn2)c1-n1cc(I)cn1 [Compound 88]
[1]; 125 g ai/ha
  Plant response rating, Wheat: 0
[1]; 500 g ai/ha
  Plant response rating, Wheat: 50
[2]
  Plant response rating, Sedge, Umbrella: 0
[3]; [14]
  Blackgrass plant response rating: 0
[3]; [15]
  Blackgrass plant response rating: 60
[3]; [16]
  Blackgrass plant response rating: 90
[3]
  Plant response rating, Blackgrass: 5
[4]; [14]
  Corn plant response rating: 5
[4]; [15]
  Corn plant response rating: 5
[4]; [16]
  Corn plant response rating: 15
[4]
  Plant response rating, Corn: 5
[5]; [14]
  Pigweed plant response rating: 100
[5]; [15]
  Pigweed plant response rating: 100
[5]; [16]
  Pigweed plant response rating: 100
[5]
  Plant response rating, Pigweed: 100
[6]; [14]
  Velvetleaf plant response rating: 15
[6]; [15]
  Velvetleaf plant response rating: 100
[6]; [16]
  Velvetleaf plant response rating: 100
[6]
  Plant response rating, Velvetleaf: 98
[7]; 125 g ai/ha, postemergence
  Plant response rating (0 to 100), Ryegrass, Italian: 0
[7]; [17]
  Plant response rating, Ryegrass, Italian: 5
[7]; Postemergence, 62 g ai/ha
  Plant response rating, Ryegrass, Italian: 10
[8]; 125 g ai/ha, postemergence
  Plant response rating (0 to 100), Wheat: 5
[8]; [17]
  Plant response rating, Wheat: 5
[8]; Postemergence, 62 g ai/ha
  Plant response rating, Wheat: 5
[9]; [18]
  Galium plant response rating: 70
[9]; 125 g ai/ha, postemergence
  Plant response rating (0 to 100), Galium: 95
[9]; [19]
  Plant response rating, Galium: 80
[9]; [20]
  Plant response rating, Galium: 70
[10]; 125 g ai/ha, postemergence
  Plant response rating (0 to 100), Lambsquarters: 75
[10]; [17]
  Plant response rating, Lambsquarters: 75
[10]; Postemergence, 62 g ai/ha
  Plant response rating, Lambsquarters: 60
[11]; [18]
  Barnyardgrass plant response rating: 5
[11]; 125 g ai/ha, postemergence
  Plant response rating (0 to 100), Barnyardgrass: 10
[11]; [19]
  Plant response rating, Barnyardgrass: 5
[11]; [20]
  Plant response rating, Barnyardgrass: 5
[12]; 125 g ai/ha, postemergence
  Plant response rating (0 to 100), Oilseed Rape: 45
[12]; [17]
  Plant response rating, Oilseed Rape: 50
[12]; Postemergence, 62 g ai/ha
  Plant response rating, Oilseed Rape: 55
[13]; 125 g ai/ha, postemergence
  Plant response rating (0 to 100), Velvetleaf: 55
[13]; [17]
  Plant response rating, Velvetleaf: 35
[13]; Postemergence, 62 g ai/ha
  Plant response rating, Velvetleaf: 40

## Clc1cnc(Oc2cccc(Br)c2-n2cc(Br)nn2)nc1 [Compound 129]
[1]; 125 g ai/ha
  Wheat plant response rating: 0
[1]; 500 g ai/ha
  Plant response rating, Wheat: 70
[2]
  Plant response rating, Sedge, Umbrella: 65
[3]; [14]
  Blackgrass plant response rating: 0
[3]; [15]
  Blackgrass plant response rating: 5
[3]; [16]
  Blackgrass plant response rating: 90
[3]
  Plant response rating, Blackgrass: 50
[4]; [14]
  Corn plant response rating: 0
[4]; [15]
  Corn plant response rating: 5
[4]; [16]
  Corn plant response rating: 30
[4]
  Plant response rating, Corn: 5
[5]; [14]
  Pigweed plant response rating: 98
[5]; [15]
  Pigweed plant response rating: 100
[5]; [16]
  Pigweed plant response rating: 100
[5]
  Plant response rating, Pigweed: 100
[6]; [14]
  Velvetleaf plant response rating: 35
[6]; [15]
  Velvetleaf plant response rating: 100
[6]; [16]
  Velvetleaf plant response rating: 100
[6]
  Plant response rating, Velvetleaf: 70
[7]; [21]
  Plant response rating (0 to 100), Ryegrass, Italian: 0
[7]; [22]
  Plant response rating, Ryegrass, Italian: 5
[7]; Postemergence, 62 g ai/ha
  Plant response rating, Ryegrass, Italian: 20
[8]; [21]
  Plant response rating (0 to 100), Wheat: 0
[8]; [22]
  Plant response rating, Wheat: 5
[8]; Postemergence, 62 g ai/ha
  Plant response rating, Wheat: 0
[9]; [21]
  Plant response rating (0 to 100), Galium: 50
[9]; [23]
  Plant response rating, Galium: 85
[9]; [20]
  Plant response rating, Galium: 55
[10]; [21]
  Plant response rating (0 to 100), Lambsquarters: 35
[10]; [22]
  Plant response rating, Lambsquarters: 85
[10]; Postemergence, 62 g ai/ha
  Plant response rating, Lambsquarters: 80
[11]; [21]
  Plant response rating (0 to 100), Barnyardgrass: 5
[11]; [23]
  Plant response rating, Barnyardgrass: 5
[11]; [19]
  Plant response rating, Barnyardgrass: 5
[11]; [20]
  Plant response rating, Barnyardgrass: 5
[12]; [21]
  Plant response rating (0 to 100), Oilseed Rape: 5
[12]; [22]
  Plant response rating, Oilseed Rape: 60
[12]; Postemergence, 62 g ai/ha
  Plant response rating, Oilseed Rape: 60
[13]; [21]
  Plant response rating (0 to 100), Velvetleaf: 15
[13]; [22]
  Plant response rating, Velvetleaf: 40
[13]; Postemergence, 62 g ai/ha
  Plant response rating, Velvetleaf: 40
